# Like-named read-outs stand apart in the source and are kept apart here.
# Experiments:
# [1] = TIM-1 multi-compartmental in vitro model, bioaccessibility; format: in vitro ADME; settings: for recovery at 10 mg/mL: TIM-1 multi-compartmental in vitro gastrointestinal model, read-out: Total recovery
# Method: Bioaccessibility of a compound of Formula 5a in the form of a free base and a fumarate salt was assessed using a TIM-1 multi-compartmental in vitro model (TNO Quality of Life, The Netherlands).
# Initial assessment of solutions and suspensions of the free base form at concentrations of 10 mg/mL and doses of 200 mg and 500 mg were performed using a standard protocol (lipid-fasted with starting gastric pH of 2 and a gastric half-time of 30 minutes).
# A further study was performed with an increased initial gastric pH of 5 and a reduced gastric half-time of 20 min. In this study, 200 mg (free base equivalent) doses of 10 mg/mL suspensions of the free base and fumarate salt of the compound of Formula 5a were compared (see Table 4, FIG. 8).
# [2] = Stability study of the fumarate salt in the solid state; format: physicochemical
# Method: The stability of the fumarate salt of the compound of Formula 5a in the solid state was investigated for samples stored at 25° C./60% relative humidity (RH) in double lined polyethylene bags inside a fibreboard outer for long term stability testing. […] AH (ambient humidity) in double lined polyethylene bags inside fibreboard outers. Further stress testing was performed on exposed samples at 40° C./75% RH and at ambient temperature in a light chamber (exposed to a minimum of 1.2 million lux hours visible light and 200 watt-hours/m^2 UV light), as shown in Table 5.
structure (smiles),measurement,setting,value
"COc1ccc(-c2ccc3c(N4CCOC[C@@H]4C)nc(N4CCOC[C@@H]4C)nc3n2)cc1CO [Formula 5a free base, (5-{2,4-bis[(3S)-3-methylmorpholin-4-yl]pyrido[2,3-d]pyrimidin-7-yl}-2-methoxyphenyl)methanol]",recovery at 10 mg/mL,"[1]; 200 mg (free base equivalent), pH 5, 200 mg (free base equivalent) of 10 mg/mL suspension, initial gastric pH 5, gastric half-time 20 min",93%
same,recovery at 10 mg/mL,"[1]; 200 mg, pH 2, 200 mg solution, 10 mg/mL, lipid-fasted, starting gastric pH 2, gastric half-time 30 min",96.8%
same,recovery at 10 mg/mL,"[1]; 200 mg, pH 2, 200 mg suspension, 10 mg/mL, lipid-fasted, starting gastric pH 2, gastric half-time 30 min",97.6%
same,recovery at 10 mg/mL,"[1]; 200 mg, pH 2, Table 4: 200 mg suspension, gastric pH 2",97.6%
same,recovery at 10 mg/mL,"[1]; 500 mg, pH 2, 500 mg solution, 10 mg/mL, lipid-fasted, starting gastric pH 2, gastric half-time 30 min",93.6%
same,recovery at 10 mg/mL,"[1]; 500 mg, pH 2, 500 mg suspension, 10 mg/mL, lipid-fasted, starting gastric pH 2, gastric half-time 30 min",91.7%
"COc1ccc(-c2ccc3c(N4CCOC[C@@H]4C)nc(N4CCOC[C@@H]4C)nc3n2)cc1CO.O=C(O)/C=C/C(=O)O [Formula 5a fumarate salt, (5-{2,4-Bis[(3S)-3-methylmorpholin-4-yl]pyrido[2,3-d]pyrimidin-7-yl}-2-methoxyphenyl)methanol Fumarate salt]","Assay (water and solvent-free, % w/w)","[2]; 1 month, 40° C./75% RH exposed",100.3 % w/w
same,Organic impurities: Largest single impurity (% w/w),"[2]; 1 month, 40° C./75% RH exposed",0.16 % w/w
same,Total organic impurities (% w/w),"[2]; 1 month, 40° C./75% RH exposed",0.36 % w/w
same,Water content (% w/w),"[2]; 1 month, 40° C./75% RH exposed",5.0 % w/w
same,"Assay (water and solvent-free, % w/w)","[2]; 3 months, 25° C./60% RH",99.7 % w/w
same,Organic impurities: Largest single impurity (% w/w),"[2]; 3 months, 25° C./60% RH",0.16 % w/w
same,Total organic impurities (% w/w),"[2]; 3 months, 25° C./60% RH",0.31 % w/w
same,Water content (% w/w),"[2]; 3 months, 25° C./60% RH",4.5 % w/w
same,"Assay (water and solvent-free, % w/w)","[2]; 3 months, 40° C./75% RH",99.3 % w/w
same,Organic impurities: Largest single impurity (% w/w),"[2]; 3 months, 40° C./75% RH",0.16 % w/w
same,Total organic impurities (% w/w),"[2]; 3 months, 40° C./75% RH",0.26 % w/w
same,Water content (% w/w),"[2]; 3 months, 40° C./75% RH",5.6 % w/w
same,"Assay (water and solvent-free, % w/w)","[2]; 3 months, 50° C.",96.8 % w/w
same,Organic impurities: Largest single impurity (% w/w),"[2]; 3 months, 50° C.",0.16 % w/w
same,Total organic impurities (% w/w),"[2]; 3 months, 50° C.",0.44 % w/w
same,Water content (% w/w),"[2]; 3 months, 50° C.",0.6 % w/w
same,degradation on storage,"[2]; 25° C./60% RH, 40° C./75% RH and 50° C. AH, 3 months",no significant degradation
same,"Assay (water and solvent-free, % w/w)","[2]; 10 days, light-exposed",95.5 % w/w
same,Organic impurities: Largest single impurity (% w/w),"[2]; 10 days, light-exposed",0.97 % w/w
same,Total organic impurities (% w/w),"[2]; 10 days, light-exposed",2.28 % w/w
same,Water content (% w/w),"[2]; 10 days, light-exposed",5.0 % w/w
same,"Assay (water and solvent-free, % w/w)",[2]; Initial,99.4 % w/w
same,Organic impurities: Largest single impurity (% w/w),[2]; Initial,0.16 % w/w
same,Total organic impurities (% w/w),[2]; Initial,0.31 % w/w
same,Water content (% w/w),[2]; Initial,3.4 % w/w
same,effect of exposure to light under stress conditions,"[2]; light chamber, minimum 1.2 million lux hours visible and 200 watt-hours/m2 UV",darkened on exposed surfaces and a loss of assay and corresponding increase in organic impurities
same,thermal degradation,[2]; stored at 50° C.,some evidence of thermal degradation
same,Total recovery,"[1]; 200 mg (free base equivalent) of 10 mg/mL suspension, initial gastric pH 5, gastric half-time 20 min",95.12

# Source: US8198441B2, “Process for the preparation of novel pyridopyrazines as mTOR kinase inhibitors” (AstraZeneca AB, priority 2008, dated 2012)
